pIC50: −log10 of the molar value.
How the values were obtained:
HT-29 tumor cells = experiment: Method C: Cell Growth Inhibition Assay (CellTiter-Glo), HT-29; format: cell-based; conditions: Homo sapiens, HT-29, 72 h, 3 days, 4-parameter fit
Method in brief: (§1)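 Cells plated at 500 cells/well, dosed next day with 10-point 1:3 dilution series (0.2% final DMSO) and grown 3 days at 37 °C, 5% CO2. CellTiter-Glo luminescence (total ATP) served as cell-number surrogate; inhibition relative to DMSO controls, IC50 interpolated by 4-parameter fit.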

A375P F11s tumor cells = experiment: Method C: Cell Growth Inhibition Assay (CellTiter-Glo), A375P F11s; format: cell-based; conditions: Homo sapiens, 72 h, 3 days, 4-parameter fit
Method in brief: as §1

SK-MEL-28 tumor cells = experiment: Method C: Cell Growth Inhibition Assay (CellTiter-Glo), SK-MEL-28; format: cell-based; conditions: Homo sapiens, SK-MEL-28, 72 h, 3 days, 4-parameter fit
Method in brief: as §1

HN5 tumor cells = experiment: Method C: Cell Growth Inhibition Assay (CellTiter-Glo), HN5; format: cell-based; conditions: Homo sapiens, 72 h, 3 days, 4-parameter fit
Method in brief: as §1

BT474 tumor cells = experiment: Method C: Cell Growth Inhibition Assay (CellTiter-Glo), BT474; format: cell-based; conditions: Homo sapiens, BT-474, 72 h, 3 days, 4-parameter fit
EGFR = molecular target: T1, EGFR (Homo sapiens, UniProt P00533); experiment: EGFR substrate phosphorylation assay (HTRF); format: biochemical; conditions: Method (A): Enzyme Mix incubated with compound at 20° C. for 1 hr, reaction started by adding Substrate Mix
T1 construct: made in house; host or cells: baculovirus expression system
T1 sequence (P00533 25-1210): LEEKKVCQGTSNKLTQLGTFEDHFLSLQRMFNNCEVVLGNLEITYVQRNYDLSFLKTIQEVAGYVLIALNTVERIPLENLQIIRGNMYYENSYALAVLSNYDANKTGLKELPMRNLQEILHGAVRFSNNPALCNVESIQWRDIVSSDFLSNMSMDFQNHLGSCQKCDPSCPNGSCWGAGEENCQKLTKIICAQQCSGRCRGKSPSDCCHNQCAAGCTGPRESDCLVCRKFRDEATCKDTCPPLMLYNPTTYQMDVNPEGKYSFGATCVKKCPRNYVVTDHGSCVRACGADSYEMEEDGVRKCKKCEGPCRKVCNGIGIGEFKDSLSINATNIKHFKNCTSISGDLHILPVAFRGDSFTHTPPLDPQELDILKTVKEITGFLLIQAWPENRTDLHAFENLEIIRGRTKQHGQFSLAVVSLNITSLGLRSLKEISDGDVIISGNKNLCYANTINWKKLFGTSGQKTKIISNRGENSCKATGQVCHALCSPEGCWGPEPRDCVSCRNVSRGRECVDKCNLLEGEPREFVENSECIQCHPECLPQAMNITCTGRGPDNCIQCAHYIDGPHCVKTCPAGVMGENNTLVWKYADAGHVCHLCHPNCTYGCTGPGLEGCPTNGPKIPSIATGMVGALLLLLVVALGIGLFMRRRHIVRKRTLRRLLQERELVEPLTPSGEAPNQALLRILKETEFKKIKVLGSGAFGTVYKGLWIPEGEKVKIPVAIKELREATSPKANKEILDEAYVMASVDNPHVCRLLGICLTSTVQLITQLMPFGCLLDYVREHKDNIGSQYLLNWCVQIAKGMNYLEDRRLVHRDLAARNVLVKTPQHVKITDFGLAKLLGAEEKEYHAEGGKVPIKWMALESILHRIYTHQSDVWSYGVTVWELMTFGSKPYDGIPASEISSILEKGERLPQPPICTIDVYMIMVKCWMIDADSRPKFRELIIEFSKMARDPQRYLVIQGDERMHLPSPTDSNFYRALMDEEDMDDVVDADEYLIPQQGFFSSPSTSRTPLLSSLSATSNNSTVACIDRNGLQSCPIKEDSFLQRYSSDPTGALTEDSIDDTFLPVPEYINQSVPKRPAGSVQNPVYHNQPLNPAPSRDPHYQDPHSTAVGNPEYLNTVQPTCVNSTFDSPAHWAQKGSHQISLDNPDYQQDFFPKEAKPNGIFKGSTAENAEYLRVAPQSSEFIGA
Method in brief: (§2)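 Baculovirus-expressed kinase (0.8 nM EGFR or 10 nM ErbB2 in enzyme mix) with Peptide C 0.8 μM and ATP 20 μM (substrate-mix levels), MOPS pH 7.5, MnCl2; 90 min, 20 °C, HTRF anti-phosphotyrosine. Method A adds 1 h enzyme–compound preincubation; B none. pIC50, final compound 0.00027–47.6 μM.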

SK-MEL-3 tumor cells = experiment: Method C: Cell Growth Inhibition Assay (CellTiter-Glo), SK-MEL-3; format: cell-based; conditions: Homo sapiens, SK-MEL3, 72 h, 3 days, 4-parameter fit
Method in brief: as §1

Colo205 tumor cells = experiment: Method C: Cell Growth Inhibition Assay (CellTiter-Glo), Colo205; format: cell-based; conditions: Homo sapiens, COLO 205, 72 h, 3 days, 4-parameter fit
Method in brief: as §1

ErbB2 = molecular target: T2, ErbB2 (Homo sapiens, UniProt P04626); experiment: ErbB-2 substrate phosphorylation assay (HTRF); format: biochemical; conditions: Method (A): Enzyme Mix incubated with compound at 20° C. for 1 hr, reaction started by adding Substrate Mix
T2 construct: made in house; host or cells: baculovirus expression system
T2 sequence (P04626 23-1255): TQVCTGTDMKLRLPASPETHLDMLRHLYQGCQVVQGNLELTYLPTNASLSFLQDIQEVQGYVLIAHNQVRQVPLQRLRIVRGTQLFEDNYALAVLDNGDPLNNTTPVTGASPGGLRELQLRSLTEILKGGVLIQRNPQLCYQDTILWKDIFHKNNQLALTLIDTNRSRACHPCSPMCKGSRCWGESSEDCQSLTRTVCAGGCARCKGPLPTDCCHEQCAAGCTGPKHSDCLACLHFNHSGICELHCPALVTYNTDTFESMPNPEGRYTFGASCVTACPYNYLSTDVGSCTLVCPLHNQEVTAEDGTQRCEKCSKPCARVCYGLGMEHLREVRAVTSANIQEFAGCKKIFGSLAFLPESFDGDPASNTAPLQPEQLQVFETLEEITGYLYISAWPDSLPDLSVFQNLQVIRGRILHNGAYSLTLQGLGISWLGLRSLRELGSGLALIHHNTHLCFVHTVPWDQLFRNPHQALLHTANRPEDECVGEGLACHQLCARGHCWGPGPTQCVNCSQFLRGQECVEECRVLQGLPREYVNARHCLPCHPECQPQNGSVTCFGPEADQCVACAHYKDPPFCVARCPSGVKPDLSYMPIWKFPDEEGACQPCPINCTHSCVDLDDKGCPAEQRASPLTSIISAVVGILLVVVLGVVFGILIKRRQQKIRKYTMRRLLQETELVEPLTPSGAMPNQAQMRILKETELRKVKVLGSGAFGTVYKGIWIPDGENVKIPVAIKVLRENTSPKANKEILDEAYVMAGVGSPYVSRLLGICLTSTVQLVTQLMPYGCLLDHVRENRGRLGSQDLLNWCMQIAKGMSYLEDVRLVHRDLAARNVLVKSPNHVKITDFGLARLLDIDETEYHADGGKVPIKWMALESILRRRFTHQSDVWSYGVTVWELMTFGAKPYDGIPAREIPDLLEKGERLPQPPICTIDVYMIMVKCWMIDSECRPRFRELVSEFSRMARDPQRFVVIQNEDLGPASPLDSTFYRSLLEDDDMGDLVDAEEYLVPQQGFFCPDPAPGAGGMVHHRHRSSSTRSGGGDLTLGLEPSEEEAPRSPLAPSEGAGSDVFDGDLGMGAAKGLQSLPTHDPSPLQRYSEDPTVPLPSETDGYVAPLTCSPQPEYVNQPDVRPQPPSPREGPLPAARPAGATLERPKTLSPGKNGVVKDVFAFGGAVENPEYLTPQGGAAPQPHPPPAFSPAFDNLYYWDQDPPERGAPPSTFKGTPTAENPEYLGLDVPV
Method in brief: as §2

SMILES | pIC50 (HT-29 tumor cells) | pIC50 (A375P F11s tumor cells) | pIC50 (SK-MEL-28 tumor cells) | pIC50 (HN5 tumor cells) | pIC50 (BT474 tumor cells) | pIC50 (EGFR) | pIC50 (SK-MEL-3 tumor cells) | pIC50 (Colo205 tumor cells) | pIC50 (ErbB2)
CC(=O)Nc1nc(-c2cccc(NC(=O)c3c(F)cccc3F)c2)c(-c2ccnc(Nc3cccc(CN4CCCC4)c3)n2)s1 [Example 34, N-{3-[2-(Acetylamino)-5-(2-{[3-(1-pyrrolidinylmethyl)phenyl]amino}-4-pyrimidinyl)-1,3-thiazol-4-yl]phenyl}-2,6-difluorobenzamide] | 6.00 to 7.00 | 6.00 to 7.00 | 6.00 to 7.00 | > 7.00 | > 7.00 | > 7.00 | 6.00 to 7.00 | 6.00 to 7.00 | > 7.00
Nc1nc(-c2cccc(NC(=O)c3c(F)cccc3F)c2)c(-c2ccnc(Nc3cccc(CN4CCCC4)c3)n2)s1 [Example 13, N-{3-[2-Amino-5-(2-{[3-(1-pyrrolidinylmethyl)phenyl]amino}-4-pyrimidinyl)-1,3-thiazol-4-yl]phenyl}-2,6-difluorobenzamide] | 6.00 to 7.00 | 6.00 to 7.00 | < 6.00 | > 7.00 | > 7.00 | > 7.00 | 6.00 to 7.00 | 6.00 to 7.00 | > 7.00
CS(=O)(=O)CCN1CCN(c2ccc(Nc3nccc(-c4scnc4-c4cccc(NC(=O)c5c(F)cccc5F)c4)n3)cc2F)CC1 [Example 80, 2,6-Difluoro-N-[3-(5-{2-[(3-fluoro-4-{4-[2-(methylsulfonyl)ethyl]-1-piperazinyl}phenyl)amino]-4-pyrimidinyl}-1,3-thiazol-4-yl)phenyl]benzamide] | 6.00 to 7.00 | 6.00 to 7.00 | 6.00 to 7.00 | > 7.00 | > 7.00 | > 7.00 | 6.00 to 7.00 | < 6.00 | > 7.00
CN(C)CCOc1cccc(Nc2nccc(-c3sc(N)nc3-c3cccc(NC(=O)c4c(F)cccc4F)c3)n2)c1 [Example 22, N-[3-(2-Amino-5-{2-[(3-{[2-(dimethylamino)ethyl]oxy}phenyl)amino]-4-pyrimidinyl}-1,3-thiazol-4-yl)phenyl]-2,6-difluorobenzamide] | 6.00 to 7.00 | 6.00 to 7.00 | 6.00 to 7.00 | > 7.00 | > 7.00 | > 7.00 | 6.00 to 7.00 | 6.00 to 7.00 | > 7.00
O=C(Nc1cccc(-c2nc(NC3CC3)sc2-c2ccnc(Nc3ccc(OCCN4CCCC4)c(F)c3)n2)c1)c1c(F)cccc1F [Example 33, N-[3-(2-(Cyclopropylamino)-5-{2-[(3-fluoro-4-{[2-(1-pyrrolidinyl)ethyl]oxy}phenyl)amino]-4-pyrimidinyl}-1,3-thiazol-4-yl)phenyl]-2,6-difluorobenzamide] | 6.00 to 7.00 | 6.00 to 7.00 | 6.00 to 7.00 | 6.00 to 7.00 | > 7.00 | > 7.00 | 6.00 to 7.00 | 6.00 to 7.00 | > 7.00
CN(C)CCOc1ccc(Nc2nccc(-c3sc(N)nc3-c3cccc(NC(=O)c4cc(F)ccc4F)c3)n2)cc1Cl [Example 56] | 6.00 to 7.00 | 6.00 to 7.00 | < 6.00 | > 7.00 | > 7.00 | > 7.00 | < 6.00 | 6.00 to 7.00 | > 7.00
CCNc1nc(-c2cccc(NC(=O)c3c(F)cccc3F)c2)c(-c2ccnc(Nc3ccc(OCCN(C)C)c(Cl)c3)n2)s1 [Example 25] | 6.00 to 7.00 | 6.00 to 7.00 | 6.00 to 7.00 | 6.00 to 7.00 | 6.00 to 7.00 | > 7.00 | 6.00 to 7.00 | 6.00 to 7.00 | > 7.00
Cc1nc(-c2cccc(NC(=O)c3c(F)cccc3F)c2)c(-c2ccnc(Nc3cccc(CN4CCCC4)c3)n2)s1 [Example 104, 2,6-Difluoro-N-{3-[2-methyl-5-(2-{[3-(1-pyrrolidinylmethyl)phenyl]amino}-4-pyrimidinyl)-1,3-thiazol-4-yl]phenyl}benzamide] | 6.00 to 7.00 | 6.00 to 7.00 | < 6.00 | 6.00 to 7.00 | > 7.00 | > 7.00 | 6.00 to 7.00 | 6.00 to 7.00 | > 7.00
CN1CCc2ccc(Nc3nccc(-c4sc(C5CCNCC5)nc4-c4cccc(NC(=O)c5c(F)cccc5F)c4)n3)cc2C1 [Example 124, 2,6-Difluoro-N-{3-[5-{2-[(2-methyl-1,2,3,4-tetrahydro-7-isoquinolinyl)amino]-4-pyrimidinyl}-2-(4-piperidinyl)-1,3-thiazol-4-yl]phenyl}benzamide] | < 6.00 | < 6.00 | < 6.00 | 6.00 to 7.00 | 6.00 to 7.00 | > 7.00 | < 6.00 | 6.00 to 7.00 | > 7.00
Cc1nc(-c2cccc(NC(=O)c3c(F)cccc3F)c2)c(-c2ccnc(Nc3ccc(OCCN(C)C)c(F)c3)n2)s1 [Example 105, N-[3-(5-{2-[(4-{[2-(Dimethylamino)ethyl]oxy}-3-fluorophenyl)amino]-4-pyrimidinyl}-2-methyl-1,3-thiazol-4-yl)phenyl]-2,6-difluorobenzamide] | 6.00 to 7.00 | 6.00 to 7.00 | < 6.00 | > 7.00 | > 7.00 | > 7.00 | < 6.00 | 6.00 to 7.00 | > 7.00
COCCNc1nc(-c2cccc(NC(=O)c3c(F)cccc3F)c2)c(-c2ccnc(Nc3ccc(OCCN4CCCC4)c(Cl)c3)n2)s1 [Example 27, N-[3-(5-{2-[(3-Chloro-4-{[2-(1-pyrrolidinyl)ethyl]oxy}phenyl)amino]-4-pyrimidinyl}-2-{[2-(methyloxy)ethyl]amino}-1,3-thiazol-4-yl)phenyl]-2,6-difluorobenzamide] | 6.00 to 7.00 | 6.00 to 7.00 | 6.00 to 7.00 | > 7.00 | > 7.00 | > 7.00 | 6.00 to 7.00 | 6.00 to 7.00 | > 7.00

The next lines start with the values.

pIC50 (HT-29 tumor cells) | pIC50 (A375P F11s tumor cells) | pIC50 (SK-MEL-28 tumor cells) | pIC50 (HN5 tumor cells) | pIC50 (BT474 tumor cells) | pIC50 (EGFR) | pIC50 (SK-MEL-3 tumor cells) | pIC50 (Colo205 tumor cells) | pIC50 (ErbB2) | SMILES
6.00 to 7.00 | 6.00 to 7.00 | 6.00 to 7.00 | > 7.00 | 6.00 to 7.00 | > 7.00 | 6.00 to 7.00 | 6.00 to 7.00 | > 7.00 | COc1ccc(Nc2nccc(-c3sc(NC4CC4)nc3-c3cccc(NC(=O)c4c(F)cccc4F)c3)n2)cc1OCCN(C)C [Example 32, N-{3-[2-(cyclopropylamino)-5-(2-{[3-{[2-(dimethylamino)ethyl]oxy}-4-(methyloxy)phenyl]amino}-4-pyrimidinyl)-1,3-thiazol-4-yl]phenyl}-2,6-difluorobenzamide]
6.00 to 7.00 | 6.00 to 7.00 | 6.00 to 7.00 | 6.00 to 7.00 | > 7.00 | > 7.00 | 6.00 to 7.00 | 6.00 to 7.00 | > 7.00 | O=C(Nc1cccc(-c2nc(NCCCN3CCOCC3)sc2-c2ccnc(Nc3cccc(CN4CCCC4)c3)n2)c1)c1c(F)cccc1F [Example 28, 2,6-Difluoro-N-{3-[2-{[3-(4-morpholinyl)propyl]amino}-5-(2-{[3-(1-pyrrolidinylmethyl)phenyl]amino}-4-pyrimidinyl)-1,3-thiazol-4-yl]phenyl}benzamide]
6.00 to 7.00 | < 6.00 | < 6.00 | > 7.00 | > 7.00 | > 7.00 | < 6.00 | 6.00 to 7.00 | > 7.00 | CN(C)CCOc1ccc(Nc2nccc(-c3sc(N(C)C)nc3-c3cccc(NC(=O)c4c(F)cccc4F)c3)n2)cc1 [Example 36, N-[3-(2-(Dimethylamino)-5-{2-[(4-{[2-(dimethylamino)ethyl]oxy}phenyl)amino]-4-pyrimidinyl}-1,3-thiazol-4-yl)phenyl]-2,6-difluorobenzamide]
6.00 to 7.00 | 6.00 to 7.00 | < 6.00 | > 7.00 | 6.00 to 7.00 | > 7.00 | 6.00 to 7.00 | 6.00 to 7.00 | > 7.00 | CN1CCc2ccc(Nc3nccc(-c4sc(NCCCN5CCOCC5)nc4-c4cccc(NC(=O)c5c(F)cccc5F)c4)n3)cc2C1 [Example 31]
6.00 to 7.00 | 6.00 to 7.00 | 6.00 to 7.00 | > 7.00 | 6.00 to 7.00 | > 7.00 | 6.00 to 7.00 | 6.00 to 7.00 | > 7.00 | CN1CCc2ccc(Nc3nccc(-c4sc(N(C)C)nc4-c4cccc(NC(=O)c5c(F)cccc5F)c4)n3)cc2C1 [Example 38]
6.00 to 7.00 | 6.00 to 7.00 | 6.00 to 7.00 | > 7.00 | > 7.00 | > 7.00 | 6.00 to 7.00 | 6.00 to 7.00 | > 7.00 | CNc1nc(-c2cccc(NC(=O)c3c(F)cccc3F)c2)c(-c2ccnc(Nc3ccc(OCCN(C)C)c(Cl)c3)n2)s1 [Example 24, N-{3-[5-{2-[(3-Chloro-4-{[2-(dimethylamino)ethyl]oxy}phenyl)amino]-4-pyrimidinyl}-2-(methylamino)-1,3-thiazol-4-yl]phenyl}-2,6-difluorobenzamide]
